Ends that are not written are not given here. Peptide text beside a SMILES is read from it. * marks the point of attachment. Biotin = O=C1N[C@H]2[C@H](CS[C@H]2CCCCC(=O)*)N1
Target: T1, PDZ protein (GST-PDZ fusion) (Homo sapiens, UniProt Q9UPQ7)
T1 construct: made in house; host or cells: E. coli (DH5alpha, BL21 or JM109)
T1 sequence (Q9UPQ7 1-1066): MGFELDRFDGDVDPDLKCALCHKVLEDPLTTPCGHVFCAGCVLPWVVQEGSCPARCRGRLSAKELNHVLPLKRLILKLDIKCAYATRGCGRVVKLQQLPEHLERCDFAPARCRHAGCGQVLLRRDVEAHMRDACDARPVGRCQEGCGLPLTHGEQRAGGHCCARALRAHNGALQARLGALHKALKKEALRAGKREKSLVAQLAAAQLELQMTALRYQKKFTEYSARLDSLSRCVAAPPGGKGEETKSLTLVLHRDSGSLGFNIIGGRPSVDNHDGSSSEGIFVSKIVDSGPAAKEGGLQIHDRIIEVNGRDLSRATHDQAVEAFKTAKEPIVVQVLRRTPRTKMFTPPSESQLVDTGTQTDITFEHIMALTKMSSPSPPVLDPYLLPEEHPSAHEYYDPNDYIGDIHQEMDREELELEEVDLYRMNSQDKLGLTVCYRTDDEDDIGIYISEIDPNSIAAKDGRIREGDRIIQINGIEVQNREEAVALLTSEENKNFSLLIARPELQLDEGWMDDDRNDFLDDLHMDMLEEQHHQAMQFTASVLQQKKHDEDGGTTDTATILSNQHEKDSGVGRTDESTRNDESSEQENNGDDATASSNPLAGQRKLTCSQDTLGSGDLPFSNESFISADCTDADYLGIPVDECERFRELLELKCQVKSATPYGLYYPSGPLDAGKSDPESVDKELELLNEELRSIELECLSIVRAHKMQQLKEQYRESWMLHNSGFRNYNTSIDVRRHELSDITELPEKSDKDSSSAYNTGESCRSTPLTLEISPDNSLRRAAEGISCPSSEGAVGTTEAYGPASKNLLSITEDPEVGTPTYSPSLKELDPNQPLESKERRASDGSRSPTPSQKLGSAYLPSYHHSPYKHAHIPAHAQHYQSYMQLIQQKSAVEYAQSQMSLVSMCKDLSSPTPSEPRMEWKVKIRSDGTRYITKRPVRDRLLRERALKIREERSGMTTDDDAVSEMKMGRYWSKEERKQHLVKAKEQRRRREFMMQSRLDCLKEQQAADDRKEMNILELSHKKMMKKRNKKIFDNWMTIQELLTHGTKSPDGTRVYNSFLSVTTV
Experiment: G' assay (10 uM PL peptide), results of TABLE 7 and TABLE 12
Assay type: binding
Settings: PDZ KIAA1095, PDZ Domain 1
In short: (§1)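 Binding classes derive from A450 nm of bound biotin-tagged PL peptide. A score of 5 needs A450 above 4 in more than two repeats.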

| Molecule | Classification |
| --- | --- |
| CC(C)C[C@H](NC(=O)[C@H](C)NC(=O)[C@@H](NC(=O)[C@H](CCC(=O)O)NC(=O)[C@H](CCCNC(=N)N)NC(=O)[C@H](CCCNC(=N)N)NC(=O)CNC(=O)[C@H](CCC(N)=O)NC(=O)[C@H](CC(C)C)NC(=O)[C@H](CCCNC(=N)N)NC(=O)CNC(=O)CNC(=O)[C@H](CCCNC(=N)N)NC(=O)[C@H](C)NC(=O)[C@H](CO)NC(=O)[C@H](CCCNC(=N)N)NC(=O)CNC(=O)CNC(=O)[C@H](C)NC(=O)[C@H](C)NC(=O)CCCC[C@@H]1SC[C@@H]2NC(=O)N[C@@H]21)[C@@H](C)O)C(=O)O [HPV E6 33 (modified)] (Biotin-AAGGRSARGGRLQGRRETAL-OH; C-terminus assumed) | 5 (A450 nm of 4 more than 2× repeated) |
| TQGFPGPATWRRISSLESEV | 1 (A450 nm 0-1) |
| CC(C)C[C@H](NC(=O)[C@H](CCCNC(=N)N)NC(=O)CNC(=O)CNC(=O)[C@H](CCCNC(=N)N)NC(=O)[C@H](C)NC(=O)[C@@H]1CCCN1C(=O)[C@H](CCCNC(=N)N)NC(=O)CNC(=O)CNC(=O)[C@@H](NC(=O)[C@H](C)NC(=O)CCCC[C@@H]1SC[C@@H]2NC(=O)N[C@@H]21)C(C)C)C(=O)N[C@@H](CCC(N)=O)C(=O)NCC(=O)N[C@@H](CCCNC(=N)N)C(=O)N[C@@H](CCCNC(=N)N)C(=O)N[C@@H](CCC(N)=O)C(=O)N[C@H](C(=O)N[C@@H](CCC(N)=O)C(=O)N[C@H](C(=O)O)C(C)C)[C@@H](C)O [HPV E6 58 (modified)] (Biotin-AVGGRPARGGRLQGRRQTQV-OH; C-terminus assumed) | 1 (A450 nm 0-1) |
| CSCC[C@H](NC(=O)[C@H](C)NC(=O)[C@H](CCCNC(=N)N)NC(=O)CNC(=O)[C@@H](NC(=O)[C@H](Cc1c[nH]c2ccccc12)NC(=O)[C@H](CCCNC(=N)N)NC(=O)CNC(=O)CCCC[C@@H]1SC[C@@H]2NC(=O)N[C@@H]21)[C@@H](C)O)C(=O)N[C@@H](CO)C(=O)N[C@@H](C)C(=O)N[C@@H](Cc1c[nH]c2ccccc12)C(=O)N[C@@H](CCCCN)C(=O)N1CCC[C@H]1C(=O)N[C@H](C(=O)N[C@@H](CCCNC(=N)N)C(=O)N[C@@H](CCCNC(=N)N)C(=O)N[C@@H](CCC(=O)O)C(=O)N[C@H](C(=O)N[C@@H](CCC(=O)O)C(=O)N[C@H](C(=O)O)C(C)C)[C@@H](C)O)[C@@H](C)O [HPV E6 #35 (modified)] (Biotin-GRWTGRAMSAWKPTRRETEV-OH; C-terminus assumed) | 4 (A450 nm 3-4) |
| CC[C@H](C)[C@H](NC(=O)CNC(=O)[C@H](CO)NC(=O)[C@H](Cc1ccccc1)NC(=O)[C@@H](NC(=O)[C@H](CS)NC(=O)CNC(=O)CNC(=O)[C@H](C)NC(=O)[C@@H]1CCCN1C(=O)[C@@H](NC(=O)[C@@H]1CCCN1C(=O)CCCC[C@@H]1SC[C@@H]2NC(=O)N[C@@H]21)[C@@H](C)CC)[C@@H](C)O)C(=O)N[C@@H](Cc1ccccc1)C(=O)N1CCC[C@H]1C(=O)N[C@H](C(=O)N[C@@H](CC(C)C)C(=O)N[C@H](C(=O)N[C@@H](CO)C(=O)N1CCC[C@H]1C(=O)N[C@@H](CC(C)C)C(=O)O)[C@@H](C)O)[C@@H](C)O [KIA 1481] (Biotin-PIPAGGCTFSGIFPTLTSPL-OH; C-terminus assumed) | 1 (A450 nm 0-1) |

Target: T2, PDZ protein (GST-PDZ fusion) (Homo sapiens, UniProt Q99767)
T2 construct: made in house; host or cells: E. coli (DH5alpha, BL21 or JM109)
T2 sequence (Q99767 1-749): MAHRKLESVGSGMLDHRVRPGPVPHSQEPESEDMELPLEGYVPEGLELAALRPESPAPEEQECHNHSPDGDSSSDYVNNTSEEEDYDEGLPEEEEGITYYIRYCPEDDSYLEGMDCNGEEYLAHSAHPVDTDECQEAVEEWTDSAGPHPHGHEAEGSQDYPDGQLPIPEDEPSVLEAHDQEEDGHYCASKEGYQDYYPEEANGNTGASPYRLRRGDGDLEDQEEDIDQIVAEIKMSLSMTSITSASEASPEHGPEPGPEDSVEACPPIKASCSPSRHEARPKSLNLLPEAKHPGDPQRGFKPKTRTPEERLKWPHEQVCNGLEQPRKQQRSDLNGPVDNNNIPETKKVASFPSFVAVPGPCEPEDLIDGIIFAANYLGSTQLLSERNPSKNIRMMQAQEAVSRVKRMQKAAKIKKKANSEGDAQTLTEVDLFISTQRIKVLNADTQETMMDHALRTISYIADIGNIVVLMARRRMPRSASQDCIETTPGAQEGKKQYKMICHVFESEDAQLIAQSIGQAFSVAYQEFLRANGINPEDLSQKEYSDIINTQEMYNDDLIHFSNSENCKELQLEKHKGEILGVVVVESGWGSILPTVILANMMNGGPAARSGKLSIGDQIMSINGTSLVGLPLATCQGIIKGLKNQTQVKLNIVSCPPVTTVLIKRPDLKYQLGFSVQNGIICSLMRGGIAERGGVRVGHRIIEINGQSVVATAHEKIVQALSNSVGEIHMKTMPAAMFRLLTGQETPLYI
Experiment: as above
Assay type: binding
Settings: PDZ X11-beta, PDZ Domain 1
In short: as §1

| Molecule | Classification |
| --- | --- |
| A2AA_HUMAN (modified) (Biotin-HDFRRAFKKILARGDRKRIV; not fully specified) | 2 (A450 nm 1-2) |

Same assay, conditions: PDZ X11-beta, PDZ Domain 2

| Molecule | Classification |
| --- | --- |
| ELLQFCRTPNPALKNGQYWV (Biotin-ELLQFCRTPNPALKNGQYWV) | 2 (A450 nm 1-2) |
| ALVLIAFCIIRRRPSAYQAL (Biotin-ALVLIAFCIIRRRPSAYQAL) [CD68] | 1 (A450 nm 0-1) |
| A2AA_HUMAN (modified) (Biotin-HDFRRAFKKILARGDRKRIV; not fully specified) | 1 (A450 nm 0-1) |

Reference: patent US20050282743A1, “Molecular interactions in cells” (Arbor Vita Corporation, priority 2001, published 2005)
